The values that follow come from patent US12391737B2, “Soluble NPY2 receptor agonists” (Boehringer Ingelheim International GmbH, priority 2020, dated 2025).

*1 amine or outer side, *2 acyl side, *3 side chain or, on linkers, in order; H or OH if unused. Where a SMILES comes first, the peptide text is derived from it. Side-chain parts run from the residue outwards. The star is where a group is joined. C18 diacid = O=C(O)CCCCCCCCCCCCCCCCC(=O)*; γGlu = O=C(O)[C@H](CCC(=O)[*:2])N[*:1]; Isovaleryl = CC(C)CC(=O)*; Ahx = NCCCCCC(=O)O

Data set [1] has as its target T1, Human Neuropeptide Y2 Receptor (Homo sapiens, UniProt P49146).
T1 construct: purchased CHEMICON HTS066M
T1 sequence (P49146 1-381): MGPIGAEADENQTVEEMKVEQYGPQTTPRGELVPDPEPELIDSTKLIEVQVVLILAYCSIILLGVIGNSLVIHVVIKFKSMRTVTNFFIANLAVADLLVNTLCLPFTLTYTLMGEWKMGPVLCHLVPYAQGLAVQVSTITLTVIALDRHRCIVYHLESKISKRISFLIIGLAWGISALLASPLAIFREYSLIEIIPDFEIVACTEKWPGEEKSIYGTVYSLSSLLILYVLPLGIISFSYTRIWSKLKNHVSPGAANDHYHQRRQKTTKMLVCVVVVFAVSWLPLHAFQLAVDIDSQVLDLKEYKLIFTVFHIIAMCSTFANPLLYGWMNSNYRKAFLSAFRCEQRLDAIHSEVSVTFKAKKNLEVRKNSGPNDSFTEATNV
The data set can be described thus: Radioligand binding competition assay (RLB). The following applies: Table 3, 125I-PYY(1-36) competition; read-out: Ki. In outline: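 Competition binding used membranes expressing the receptor (0.5 μg protein/well) in 50 mM HEPES, 5 mM MgCl2, 1 mM CaCl2, pH 7.4 with 0.2% ovalbumin, incubated 2 h at room temperature with shaking. Bound radioligand was collected by filtration onto PEI-soaked GF/C filters and counted; IC50 from nonlinear sigmoidal fits.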

Data set [2] in a line: Solubility determination. The note with it: for Sol6: pH 6; for Sol7: pH 7. In outline: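 Sample: TFA-salt peptide at 10 mg/ml target in 0.1 M Na diphosphate, pH 6.4 or 7.0, shaken 2 h RT, filtered, diluted to 1 mg/ml.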
In data set [3] the target is T2, human NPY5 receptor (hY5R) (Homo sapiens, UniProt Q15761).
T2 sequence (Q15761 1-445): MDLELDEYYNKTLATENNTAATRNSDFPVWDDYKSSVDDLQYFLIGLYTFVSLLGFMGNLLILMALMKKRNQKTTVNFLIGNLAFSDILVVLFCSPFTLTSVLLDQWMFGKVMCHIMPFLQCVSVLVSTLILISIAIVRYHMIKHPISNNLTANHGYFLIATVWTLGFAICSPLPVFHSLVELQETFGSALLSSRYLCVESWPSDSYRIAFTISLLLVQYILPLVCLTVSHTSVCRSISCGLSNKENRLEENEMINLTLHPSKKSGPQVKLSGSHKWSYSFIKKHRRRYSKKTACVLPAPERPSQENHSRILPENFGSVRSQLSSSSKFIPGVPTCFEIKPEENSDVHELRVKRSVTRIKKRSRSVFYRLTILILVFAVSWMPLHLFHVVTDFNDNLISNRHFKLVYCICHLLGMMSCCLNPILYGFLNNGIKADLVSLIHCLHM
Nature of the data set: HTRF cAMP Gi assay, hY5R. A general note: In TR-FRET formats the signal depends on donor and acceptor labels being close together.

Consider `CC(C)CC(=O)N[C@@H](C)C(=O)N1CCC[C@H]1C(=O)N[C@@H](CCC(=O)O)C(=O)N[C@@H](CCCCNC(=O)CCCCCNC(=O)CC[C@H](NC(=O)CCCCCCCCCCCCCCCCC(=O)O)C(=O)O)C(=O)N1CCC[C@H]1C(=O)N[C@@H](CCC(=O)O)C(=O)N[C@@H](CCC(=O)O)C(=O)N[C@@H](CC(=O)O)C(=O)N[C@@H](C)C(=O)N[C@@H](CO)C(=O)N1CCC[C@H]1C(=O)N[C@@H](CCC(=O)O)C(=O)N[C@@H](CCC(=O)O)C(=O)N[C@@H](CC(C)C)C(=O)N[C@@H](CCC(N)=O)C(=O)N[C@@H](CCC(N)=O)C(=O)N[C@@H](Cc1ccc(O)cc1)C(=O)N[C@@H](Cc1ccc(O)cc1)C(=O)N[C@H](C(=O)N[C@@H](CO)C(=O)N[C@@H](CC(C)C)C(=O)N[C@@H](CCCNC(=N)N)C(=O)N[C@@H](Cc1c[nH]cn1)C(=O)N[C@@H](Cc1ccc(O)cc1)C(=O)N[C@@H](Cc1ccc(O)cc1)C(=O)N[C@@H](Cc1c[nH]cn1)C(=O)N[C@@H](Cc1c[nH]c2ccccc12)C(=O)N[C@@H](CC(C)C)C(=O)N[C@H](C(=O)N[C@@H](CCCNC(=N)N)C(=O)N[C@@H](CCC(N)=O)C(=O)N[C@@H](CCCNC(=N)N)C(=O)N[C@@H](Cc1ccc(O)cc1)C(N)=O)[C@@H](C)O)C(C)C` [Compound 12, N{alpha-4}-(3-methylbutanoyl)-N{epsilon-7}-(6-[(4S)-4-carboxy-4-(17-carboxyheptadecanamido)butanamido]hexanoyl)[4A,7K,9E,18Q,19Q,22V,28Y,29H,30W,31L]-hPYY(4-36)] (Isovaleryl-APEK([Ahx-γGlu-C18 diacid])PEEDASPEELQQYYVSLRHYYHWLTRQRY-NH2), for which the Ki (commonly the dissociation constant of the complex between target and ligand, obtained from inhibition or displacement) in data set [1] was 4.16 nM. In data set [2], the “Sol6” value stood at 9.4 mg/mL and the “Sol7” value was 9.8 mg/mL. For the same compound, the EC50 (usually the concentration giving half of the maximal effect) in data set [3] is above 5000 nM.
Take `CC[C@H](C)[C@H](NC(=O)[C@H](CCC(=O)O)NC(=O)[C@H](CCC(=O)O)NC(=O)[C@@H]1CCCN1C(=O)[C@H](CO)NC(=O)[C@H](C)NC(=O)[C@H](CC(=O)O)NC(=O)[C@H](CCC(=O)O)NC(=O)[C@H](CCC(=O)O)NC(=O)[C@@H]1CCCN1C(=O)[C@H](CCCCNC(=O)CCCCCNC(=O)CC[C@H](NC(=O)CCCCCCCCCCCCCCCCC(=O)O)C(=O)O)NC(=O)[C@H](CCC(=O)O)NC(=O)[C@@H]1CCCN1C(=O)[C@H](C)NC(=O)CC(C)C)C(=O)N[C@@H](CCC(N)=O)C(=O)N[C@@H](CCCNC(=N)N)C(=O)N[C@@H](Cc1ccc(O)cc1)C(=O)N[C@@H](Cc1ccc(O)cc1)C(=O)N[C@H](C(=O)N[C@@H](CO)C(=O)N[C@@H](CC(C)C)C(=O)N[C@@H](CCCNC(=N)N)C(=O)N[C@@H](Cc1c[nH]cn1)C(=O)N[C@@H](Cc1ccc(O)cc1)C(=O)N[C@@H](Cc1ccc(O)cc1)C(=O)N[C@@H](CC(N)=O)C(=O)N[C@@H](Cc1c[nH]c2ccccc12)C(=O)N[C@@H](CC(C)C)C(=O)N[C@H](C(=O)N[C@@H](CCCNC(=N)N)C(=O)N[C@@H](CCC(N)=O)C(=O)N[C@@H](CCCNC(=N)N)C(=O)N[C@@H](Cc1ccc(O)cc1)C(N)=O)[C@@H](C)O)C(C)C` [Compound 147, N{alpha-4}-(3-methylbutanoyl)-N{epsilon-7}-(6-[(4S)-4-carboxy-4-(17-carboxyheptadecanamido)butanamido]hexanoyl)-[4A,7K,9E,17I,18Q,22V,28Y,30W,31L]-hPYY(4-36)]: in data set [1], the Ki was determined as 5.04 nM. Also, in data set [2], the “Sol6” value came out at 9.4 mg/mL and the “Sol7” value was 9.2 mg/mL. Besides, the EC50 in data set [3] was above 5000 nM.
`CC(C)CC(=O)N[C@@H](C)C(=O)N1CCC[C@H]1C(=O)N[C@@H](CCC(=O)O)C(=O)N[C@@H](CCCCNC(=O)CCCCCNC(=O)CC[C@H](NC(=O)CCCCCCCCCCCCCCCCC(=O)O)C(=O)O)C(=O)N1CCC[C@H]1C(=O)N[C@@H](CCC(=O)O)C(=O)N[C@@H](CCC(=O)O)C(=O)N[C@@H](CCC(=O)O)C(=O)N[C@@H](C)C(=O)N[C@@H](CO)C(=O)N1CCC[C@H]1C(=O)N[C@@H](CCC(=O)O)C(=O)N[C@@H](CCC(=O)O)C(=O)N[C@@H](CC(C)C)C(=O)N[C@@H](CCC(N)=O)C(=O)N[C@@H](CCCNC(=N)N)C(=O)N[C@@H](Cc1ccc(O)cc1)C(=O)N[C@@H](Cc1ccc(O)cc1)C(=O)N[C@H](C(=O)N[C@@H](CO)C(=O)N[C@@H](CC(C)C)C(=O)N[C@@H](CCCNC(=N)N)C(=O)N[C@@H](Cc1c[nH]cn1)C(=O)N[C@@H](Cc1ccc(O)cc1)C(=O)N[C@@H](Cc1ccc(O)cc1)C(=O)N[C@@H](CC(N)=O)C(=O)N[C@@H](Cc1c[nH]c2ccccc12)C(=O)N[C@@H](CC(C)C)C(=O)N[C@H](C(=O)N[C@@H](CCCNC(=N)N)C(=O)N[C@@H](CCC(N)=O)C(=O)N[C@@H](CCCNC(=N)N)C(=O)N[C@@H](Cc1ccc(O)cc1)C(N)=O)[C@@H](C)O)C(C)C` [Compound 23, N{alpha-4}-(3-methylbutanoyl)-N{epsilon-7}-(6-[(4S)-4-carboxy-4-(17-carboxyheptadecanamido)butanamido]hexanoyl)[4A,7K,9E,11E,18Q,22V,28Y,30W,31L]-hPYY(4-36)]: the Ki in data set [1] is 12.6 nM. Besides, in data set [2], the “Sol6” value came out at 9.8 mg/mL and the “Sol7” value is 10.0 mg/mL. This compound also returned an EC50 in data set [3] above 5000 nM.
The like results for `CC(C)CC(=O)N[C@@H](C)C(=O)N1CCC[C@H]1C(=O)N[C@@H](CCC(=O)O)C(=O)N[C@@H](CCCCNC(=O)CCCCCNC(=O)CC[C@H](NC(=O)CCCCCCCCCCCCCCCCC(=O)O)C(=O)O)C(=O)N1CCC[C@H]1C(=O)N[C@@H](CCC(=O)O)C(=O)N[C@@H](CCC(=O)O)C(=O)N[C@@H](CC(=O)O)C(=O)N[C@@H](C)C(=O)N[C@H](C(=O)N1CCC[C@H]1C(=O)N[C@@H](CCC(=O)O)C(=O)N[C@@H](CCC(=O)O)C(=O)N[C@@H](CC(C)C)C(=O)N[C@@H](CCC(N)=O)C(=O)N[C@@H](CCCCN)C(=O)N[C@@H](Cc1ccc(O)cc1)C(=O)N[C@@H](Cc1ccc(O)cc1)C(=O)N[C@H](C(=O)N[C@@H](CO)C(=O)N[C@@H](CC(C)C)C(=O)N[C@@H](CCCNC(=N)N)C(=O)N[C@@H](Cc1c[nH]cn1)C(=O)N[C@@H](Cc1ccc(O)cc1)C(=O)N[C@@H](Cc1ccc(O)cc1)C(=O)N[C@@H](CC(N)=O)C(=O)N[C@@H](Cc1c[nH]c2ccccc12)C(=O)N[C@@H](CC(C)C)C(=O)N[C@H](C(=O)N[C@@H](CCCNC(=N)N)C(=O)N[C@@H](CCC(N)=O)C(=O)N[C@@H](CCCNC(=N)N)C(=O)N[C@@H](Cc1ccc(O)cc1)C(N)=O)[C@@H](C)O)C(C)C)[C@@H](C)O` [Compound 16, N{alpha-4}-(3-methylbutanoyl)-N{epsilon-7}-(6-[(4S)-4-carboxy-4-(17-carboxyheptadecanamido)butanamido]hexanoyl)[4A,7K,9E,13T,18Q,19K,22V,28Y,30W,31L]-hPYY(4-36)] were, in that order, 2.81 nM, 10.0 mg/mL, 8.3 mg/mL and above 5000 nM.
